From patent US20200000834A1, “POLYPHENOL GLYCOSIDE-CONTAINING COMPOSITION” (SUNSTAR INC., priority 2018, published 2020)

Tests used:
[1] = tested on: ACC (acetyl-CoA carboxylase); experiment: ACC phosphorylation (pACC/tACC) by western blotting in C2C12 myotubes; type: cell-based, mouse; conditions: single use or combination in a specific mass ratio
Method: The resultant was used in the following experiment. Since trifolin and astragalin have the same molecular weights, their concentration ratios are the same as the mass ratios. A medium without any addition was used as a negative control, and a medium containing AICAR (final concentration: 2 mM) was used as a positive control. AICAR is a substance that is metabolized to an analog of AMP when taken in a cell.
A mouse skeletal myotube cell line (C2C12) was inoculated in a 6-well cell culture plate. The cell line was cultured in a DMEM medium containing 10% fetal bovine serum and a 1% antibacterial agent at 37° C. in the presence of 5% carbon dioxide for 3 days. […] The protein concentration of each supernatant was measured. […]
After SDS-PAGE, the protein was transferred to a PVDF membrane, and blocking was performed. […] After sufficient washing, chemiluminescence (band) on the membrane was detected using a CCD camera imager (produced by GE Healthcare) (FIG. 1). The band intensity was quantified using image J (NIH). The degree of the activity (i.e., “phosphorylated AMPK/total AMPK (pAMPK/tAMPK)” or “phosphorylated ACC/total ACC (pACC/tACC)”) was expressed as a relative value with the value of the negative control being defined as 1 (FIG. 2a and FIG. 2b).

[2] = tested on: AMPK; conditions: known as; cited from earlier work

O=c1c(O[C@@H]2O[C@H](CO)[C@H](O)[C@H](O)[C@H]2O)c(-c2ccc(O)cc2)oc2cc(O)cc(O)c12 [trifolin, kaempferol-3-O-galactoside]
ACC phosphorylation promotion (ACC inactivation promotion) effects [1]: almost no effects

NC(=O)c1ncn([C@@H]2O[C@H](CO)[C@@H](O)[C@H]2O)c1N [AICAR]
AMPK activation in skeletal muscle [2]: significantly activating AMPK
